Measured values taken from patent US8884030B2, “Inhibitors of Flaviviridae viruses” (priority 2010, dated 2014).
Like-named read-outs stand apart in the source and are kept apart here.

Test system: human hepatoma Huh-7 cell line harboring a HCV replicon
Test: HCV replicon assay (inhibition of viral replication, luciferase)
Assay type: cell-based
Conditions: Hepatitis C virus, read-out: % inhibition at 2 μM
Method in brief: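 Huh-7 replicon cells (1600/well) exposed 3 days at 37 °C to 10-point 3-fold dilutions, 0.44% DMSO. Replication measured by Dual-Glo luciferase, background from ITMN-191 wells; cytotoxicity by calcein AM. EC50/CC50 from Hill fit; % inhibition at fixed concentration derivable from fit.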

Compound	inhibition at 2 µM (72 h, 2 μM, Huh-7 HCV replicon cells, 3 days incubation, inhibition of viral replication)	inhibition at 2 µM (Huh-7, 72 h)
CC1CCC(C(=O)N(c2cc(C#CC(C)(C)C)sc2C(=O)O)C2CCC(NN(C)C(=O)OC3CCOCC3)CC2)CC1 (centres unmarked) [Compound 217, 5-(3,3-dimethyl-but-1-ynyl)-3-((4-methyl-cyclohexanecarbonyl)-{4-[N′-methyl-N′-(tetrahydro-pyran-4-yloxycarbonyl)-hydrazino]-cyclohexyl}-amino)-thiophene-2-carboxylic acid]	100%	
CC1CCC(C(=O)N(c2cc(C#CC(C)(C)C)sc2C(=O)O)C2CCC(NN(C)C(=O)Oc3ccccn3)CC2)CC1 (centres unmarked) [Compound 218, 5-(3,3-dimethyl-but-1-ynyl)-3-((4-methyl-cyclohexanecarbonyl)-{4-[N′-methyl-N′-(pyridin-2-yloxycarbonyl)-hydrazino]-cyclohexyl}-amino)-thiophene-2-carboxylic acid]		100%
